Reference: patent US20240285534A1, “CO-AMORPHOUS SOLID FORMS OF FLAVONOIDS” (ALPARIS, S.A. de C.V., priority 2022, published 2024)

Key:
[1] = Solubility test in water (supersaturated solutions); format: physicochemical; conditions: 22 mg added to 0.5 ml of water
Experimental: Supersaturated solutions of naringenin and NRG:ARG 1:3 NSF were prepared from 0.5 ml of water.

[2] = Wen et al., Molecules 2010; cited from earlier work

## O=C1C[C@@H](c2ccc(O)cc2)Oc2cc(O)cc(O)c21 [naringenin, Naringenin]
[1]
  dissolution in water: practically it did not dissolve at all
[2]
  reported solubility: 4.38 µg/mL
